Test results as given in patent US20170360791A1, “PHARMACEUTICAL COMPOSITIONS FOR INCREASING THE BIOAVAILABILITY OF POORLY SOLUBLE DRUGS” (ASTEX PHARMACEUTICALS, INC., priority 2014, published 2017).
In brackets after ≈: the same amount, converted by molar mass. Read-outs that look alike come from different tables or passages of the source.

What was measured:
[1] = format: physicochemical; details: room temperature, >24 hours
Method: The suspensions were filtered through 0.2 or 0.45 microm filters prior to HPLC analysis. Some filtrates were diluted with MeOH prior to the HPLC analysis.

[2] = MP470FB content in the supernatant of Soluplus/SIF mixtures at various time-points; format: physicochemical; set-up: MP470FB content in the supernatant: unit not given here; details: 37° C.

- solubility ([1]; TPGS, aqueous with cosolvent or surfactant or cyclodextrin, thermodynamic from solid, solvent TPGS, read-out: Solubility): 10000 µg/mL (≈ 22.3 mM)
- solubility ([1]; Tween 80, aqueous with cosolvent or surfactant or cyclodextrin, thermodynamic from solid, solvent Tween 80, read-out: Solubility): 6600 µg/mL (≈ 14.7 mM)
- solubility ([1]; acetic acid, organic solvent or mixture, thermodynamic from solid, solvent Acetic acid, read-out: Solubility): 2900 µg/mL (≈ 6.48 mM)
- solubility ([1]; anisole, organic solvent or mixture, thermodynamic from solid, solvent Anisole, read-out: Solubility): 1800 µg/mL (≈ 4.02 mM)
- solubility ([1]; ethanol, organic solvent or mixture, thermodynamic from solid, solvent Ethanol, read-out: Solubility): 300 µg/mL (≈ 0.67 mM)
- solubility ([1]; ethyl cinnamate, organic solvent or mixture, thermodynamic from solid, solvent Ethyl cinnamate, read-out: Solubility): 3900 µg/mL (≈ 8.71 mM)
- solubility ([1]; linoleic acid, oil or lipid, thermodynamic from solid, solvent Linoleic acid, read-out: Solubility): 20 µg/mL (≈ 0.0447 mM)
- solubility ([1]; oleic acid, oil or lipid, thermodynamic from solid, solvent Oleic acid, read-out: Solubility): 100 µg/mL (≈ 0.223 mM)
- solubility ([1]; propylene carbonate, organic solvent or mixture, thermodynamic from solid, solvent Propylene carbonate, read-out: Solubility): 2900 µg/mL (≈ 6.48 mM)
- solubility ([1]; solvent Acetone): 2600 µg/mL (≈ 5.81 mM)
- solubility ([1]; solvent Benzyl alcohol): 63000 µg/mL (≈ 141 mM)
- solubility ([1]; solvent DMA): >240000 µg/mL
- solubility ([1]; solvent DMA, listed as MP470 free base): > 240000 µg/mL
- solubility ([1]; solvent DMSO): ~130000 µg/mL (≈ 290 mM)
- solubility ([1]; solvent Glycerin): 400 µg/mL (≈ 0.894 mM)
- solubility ([1]; solvent Labrasol): 11000 µg/mL (≈ 24.6 mM)
- solubility ([1]; solvent Methanol): 500 µg/mL (≈ 1.12 mM)
- solubility ([1]; solvent NMP): 300000 to 360000 µg/mL
- solubility ([1]; solvent NMP, listed as MP470 free base): ~300000 µg/mL (≈ 670 mM)
- solubility ([1]; solvent PEG400): 14000 µg/mL (≈ 31.3 mM)
- solubility ([1]; solvent Phosal 50 PG): 500 µg/mL (≈ 1.12 mM)
- solubility ([1]; solvent Propylene glycol): 400 µg/mL (≈ 0.894 mM)
- solubility ([1]; solvent Tween 20): 8000 µg/mL (≈ 17.9 mM)
- solubility ([1]; triacetin, organic solvent or mixture, thermodynamic from solid, solvent Triacetin, read-out: Solubility): 1000 µg/mL (≈ 2.23 mM)
- MP470FB content in the supernatant ([2]; 0.2% Soluplus/SIF, MP470FB 0.2 mg/mL, 30 min): 0.082
- MP470FB content in the supernatant ([2]; 0.2% Soluplus/SIF, MP470FB 0.2 mg/mL, 2 hr): 0.084
- MP470FB content in the supernatant ([2]; 0.2% Soluplus/SIF, MP470FB 0.2 mg/mL, 4 hr): 0.089
- MP470FB content in the supernatant ([2]; 0.2% Soluplus/SIF, MP470FB 0.2 mg/mL, 6 hr): 0.087
- MP470FB content in the supernatant ([2]; 0.2% Soluplus/SIF, MP470FB 0.2 mg/mL, 24 hr): 0.107
- MP470FB content in the supernatant ([2]; 0.2% Soluplus/SIF, MP470FB 0.6 mg/mL, 30 min): 0.126
- MP470FB content in the supernatant ([2]; 0.2% Soluplus/SIF, MP470FB 0.6 mg/mL, 2 hr): 0.136
- MP470FB content in the supernatant ([2]; 0.2% Soluplus/SIF, MP470FB 0.6 mg/mL, 4 hr): 0.152
- MP470FB content in the supernatant ([2]; 0.2% Soluplus/SIF, MP470FB 0.6 mg/mL, 6 hr): 0.154
- MP470FB content in the supernatant ([2]; 0.2% Soluplus/SIF, MP470FB 0.6 mg/mL, 24 hr): 0.178
- MP470FB content in the supernatant ([2]; 0.5% Soluplus/SIF, MP470FB 0.2 mg/mL, 30 min): 0.092
- MP470FB content in the supernatant ([2]; 0.5% Soluplus/SIF, MP470FB 0.2 mg/mL, 2 hr): 0.097
- MP470FB content in the supernatant ([2]; 0.5% Soluplus/SIF, MP470FB 0.2 mg/mL, 4 hr): 0.103
- MP470FB content in the supernatant ([2]; 0.5% Soluplus/SIF, MP470FB 0.2 mg/mL, 6 hr): 0.107
- MP470FB content in the supernatant ([2]; 0.5% Soluplus/SIF, MP470FB 0.2 mg/mL, 24 hr): 0.127
- MP470FB content in the supernatant ([2]; 0.5% Soluplus/SIF, MP470FB 0.6 mg/mL, 30 min): 0.155
- MP470FB content in the supernatant ([2]; 0.5% Soluplus/SIF, MP470FB 0.6 mg/mL, 2 hr): 0.190
- MP470FB content in the supernatant ([2]; 0.5% Soluplus/SIF, MP470FB 0.6 mg/mL, 4 hr): 0.228
- MP470FB content in the supernatant ([2]; 0.5% Soluplus/SIF, MP470FB 0.6 mg/mL, 6 hr): 0.235
- MP470FB content in the supernatant ([2]; 0.5% Soluplus/SIF, MP470FB 0.6 mg/mL, 24 hr): 0.315
- MP470FB content in the supernatant ([2]; 1.0% Soluplus/SIF, MP470FB 0.2 mg/mL, 30 min): 0.096
- MP470FB content in the supernatant ([2]; 1.0% Soluplus/SIF, MP470FB 0.2 mg/mL, 2 hr): 0.104
- MP470FB content in the supernatant ([2]; 1.0% Soluplus/SIF, MP470FB 0.2 mg/mL, 4 hr): 0.115
- MP470FB content in the supernatant ([2]; 1.0% Soluplus/SIF, MP470FB 0.2 mg/mL, 6 hr): 0.118
- MP470FB content in the supernatant ([2]; 1.0% Soluplus/SIF, MP470FB 0.2 mg/mL, 24 hr): 0.135
- MP470FB content in the supernatant ([2]; 1.0% Soluplus/SIF, MP470FB 0.6 mg/mL, 30 min): 0.179
- MP470FB content in the supernatant ([2]; 1.0% Soluplus/SIF, MP470FB 0.6 mg/mL, 2 hr): 0.223
- MP470FB content in the supernatant ([2]; 1.0% Soluplus/SIF, MP470FB 0.6 mg/mL, 4 hr): 0.277
- MP470FB content in the supernatant ([2]; 1.0% Soluplus/SIF, MP470FB 0.6 mg/mL, 6 hr): 0.318
- MP470FB content in the supernatant ([2]; 1.0% Soluplus/SIF, MP470FB 0.6 mg/mL, 24 hr): 0.428
- MP470FB content in the supernatant ([2]; 2.0% Soluplus/SIF, MP470FB 0.2 mg/mL, 30 min): 0.101
- MP470FB content in the supernatant ([2]; 2.0% Soluplus/SIF, MP470FB 0.2 mg/mL, 2 hr): 0.110
- MP470FB content in the supernatant ([2]; 2.0% Soluplus/SIF, MP470FB 0.2 mg/mL, 4 hr): 0.126
- MP470FB content in the supernatant ([2]; 2.0% Soluplus/SIF, MP470FB 0.2 mg/mL, 6 hr): 0.138
- MP470FB content in the supernatant ([2]; 2.0% Soluplus/SIF, MP470FB 0.2 mg/mL, 24 hr): 0.170
- MP470FB content in the supernatant ([2]; 2.0% Soluplus/SIF, MP470FB 0.6 mg/mL, 30 min): 0.206
- MP470FB content in the supernatant ([2]; 2.0% Soluplus/SIF, MP470FB 0.6 mg/mL, 2 hr): 0.290
- MP470FB content in the supernatant ([2]; 2.0% Soluplus/SIF, MP470FB 0.6 mg/mL, 4 hr): 0.368
- MP470FB content in the supernatant ([2]; 2.0% Soluplus/SIF, MP470FB 0.6 mg/mL, 6 hr): 0.409
- MP470FB content in the supernatant ([2]; 2.0% Soluplus/SIF, MP470FB 0.6 mg/mL, 24 hr): 0.469
- MP470FB content in the supernatant ([2]; 5.0% Soluplus/SIF, MP470FB 0.2 mg/mL, 30 min): 0.114
- MP470FB content in the supernatant ([2]; 5.0% Soluplus/SIF, MP470FB 0.2 mg/mL, 2 hr): 0.124
- MP470FB content in the supernatant ([2]; 5.0% Soluplus/SIF, MP470FB 0.2 mg/mL, 4 hr): 0.129
- MP470FB content in the supernatant ([2]; 5.0% Soluplus/SIF, MP470FB 0.2 mg/mL, 6 hr): 0.137
- MP470FB content in the supernatant ([2]; 5.0% Soluplus/SIF, MP470FB 0.2 mg/mL, 24 hr): 0.144
- MP470FB content in the supernatant ([2]; 5.0% Soluplus/SIF, MP470FB 0.6 mg/mL, 30 min): 0.244
- MP470FB content in the supernatant ([2]; 5.0% Soluplus/SIF, MP470FB 0.6 mg/mL, 2 hr): 0.342
- MP470FB content in the supernatant ([2]; 5.0% Soluplus/SIF, MP470FB 0.6 mg/mL, 4 hr): 0.374
- MP470FB content in the supernatant ([2]; 5.0% Soluplus/SIF, MP470FB 0.6 mg/mL, 6 hr): 0.411
- MP470FB content in the supernatant ([2]; 5.0% Soluplus/SIF, MP470FB 0.6 mg/mL, 24 hr): 0.467
- MP470FB content in the supernatant ([2]; Control (SIF), MP470FB 0.2 mg/mL, 30 min): 0.002
- MP470FB content in the supernatant ([2]; Control (SIF), MP470FB 0.2 mg/mL, 2 hr): 0
- MP470FB content in the supernatant ([2]; Control (SIF), MP470FB 0.2 mg/mL, 4 hr): 0
- MP470FB content in the supernatant ([2]; Control (SIF), MP470FB 0.2 mg/mL, 6 hr): 0
- MP470FB content in the supernatant ([2]; Control (SIF), MP470FB 0.2 mg/mL, 24 hr): 0
- MP470FB content in the supernatant ([2]; Control (SIF), MP470FB 0.6 mg/mL, 30 min): 0.002
- MP470FB content in the supernatant ([2]; Control (SIF), MP470FB 0.6 mg/mL, 2 hr): 0
- MP470FB content in the supernatant ([2]; Control (SIF), MP470FB 0.6 mg/mL, 4 hr): 0
- MP470FB content in the supernatant ([2]; Control (SIF), MP470FB 0.6 mg/mL, 6 hr): 0
- MP470FB content in the supernatant ([2]; Control (SIF), MP470FB 0.6 mg/mL, 24 hr): 0
- time MP470 is kept stable in solution by interaction with Soluplus ([2]; Soluplus/SIF): at least 24 hours
Compound: S=C(NCc1ccc2c(c1)OCO2)N1CCN(c2ncnc3c2oc2ccccc23)CC1 [MP470 FB, amuvatinib]
